Data taken from patent US20240398781A1, “SPIROCYCLIC CYCLIC MODULATORS OF CHOLESTEROL BIOSYNTHESIS AND THEIR USE FOR PROMOTING REMYELINATION” (GENENTECH, INC., priority 2021, published 2024).

Key:
[1] = target: human emopamil binding protein and human 7-dehydrocholesterol reductase co-expressing cells (hEBP-DHCR7 membrane) (Homo sapiens (Human), UniProt Q15125); experiment: Radioligand filter binding assay on hEBP-DHCR7 membrane; conditions: [3H]-(S)-6-(2-Methyl-3-(6-(trifluoromethyl)pyridin-3-yl)propyl)-2-thia-6-azaspiro[3.4]octane 2,2-dioxide radioligand, HEK293 membrane co-expressing hEBP and hDHCR7
How it was run: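 HEK293 cells transiently co-expressing human EBP and DHCR7 supplied whole-cell membranes (10 μg/well), incubated 3 h at 22 °C with [3H]-labelled spiro-octane dioxide ligand (added at 25 nM) and compound (0.06-5000 nM final, 8 doses, n=2). Bound ligand was collected on PEI-treated GF/B filters and counted by scintillation. IC50 was Hill-fitted from % inhibition and reported as Ki.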

human EBP = human EBP (Homo sapiens (Human), UniProt Q15125); experiment: Competition binding assay (SPA, [3H]-Ifenprodil) to determine compound affinity to EBP; conditions: [3H]-Ifenprodil 10 nM, HEK293 membrane overexpressing human EBP, Ki=IC50/(1+[L]/Kd); read-out: hEBP SPA Ki
Experimental: Membrane preparation: To examine compound binding affinity to EBP, human EBP was overexpressed in human embryonic kidney 293 cells. Cell pellet was lysed in 10 times weight binding buffer (50 mM Tris, 5 mM MgCl2, 0.1 mM EDTA, lx protease inhibitor cocktail, pH 7.5) on ice by using a dounce homogenizer. The solution was centrifuged at 25,000 g for 50 min at 4° C. The membrane pellet was re-suspended in binding buffer and run through a 25 5/8 gauge needle. After checking the concentration by Bradford assay, the whole cell membrane solution was adjusted to 20 mg/mL and stored at −80° C.
This binding solution was centrifuged at 400 g for 5 minutes to collect the bead/membrane mixture. After re-suspending the pellet in binding buffer at the same calculated volume with 0.01% BSA (Sigma A1933), the bead/membrane mixture was added in 384-well low-binding surface plate (PerkinElmer Cat #6057480) at 25 μl/well. Radioligand at different concentrations with and without the non-radio-labeled same ligand 5 uM (for nonspecific and total signal, respectively) was added to bring final volume to 50 µl/well with DMSO concentration at 0.1%. At equilibrium (3 hours after ligand addition), radiometric signal CPM was counted by using a Microbeta2 microplate counter (Perkinelmer).
Competition binding assay to determine compound affinity: The same conditions of the radioligand Kd study were used for compound single dose percentage inhibition and equilibrium dissociation constant Ki examinations, except 50 nL compound DMSO stock was pre-added in 384-well low-binding surface plate (PerkinElmer Cat #6057480) by Echo 550 (Labcyte) to reach the final concentration for single dose test at 1 uM, and dose response test from 0.06 nM to 5 uM (8 dose, 5 times dilution). A pre-incubated bead/membrane mixture was added in compound plate at 0.3 mg beads and […] membrane per well. […] At equilibrium (3 hours after ligand addition), radiometric signal was counted as described above. The percentage inhibition of compound at each testing concentration was calculated by normalizing each condition's CPM readout to full block (5 uM non-radiolabeled ligand) and non-block (DMSO) control conditions. Compound binding inhibition IC50 was determined by nonlinear regression fitting of percentage inhibition plot against compound concentration. Compound Ki was calculated from the equation Ki=IC50/(1+[L]/Kd), which [L] was radioligand concentration used in assay. All tests had N bigger or equal to 2.

Sequence of human EBP (Q15125 whole entry): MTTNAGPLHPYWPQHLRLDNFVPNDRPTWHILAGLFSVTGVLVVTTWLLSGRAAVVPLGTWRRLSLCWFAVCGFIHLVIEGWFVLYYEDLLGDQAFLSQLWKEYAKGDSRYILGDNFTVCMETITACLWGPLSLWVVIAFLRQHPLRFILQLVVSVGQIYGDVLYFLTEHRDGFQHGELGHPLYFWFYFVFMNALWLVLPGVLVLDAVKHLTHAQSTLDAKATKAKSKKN
Sequence of human emopamil binding protein and human 7-dehydrocholesterol reductase co-expressing cells (hEBP-DHCR7 membrane) (Q15125 whole entry): as above

| Ki [1] [nM] | Ki (human EBP) [nM] | SMILES |
| --- | --- | --- |
| 26.8 | 100 | O=S1(=O)CC2(CCN([C@@H]3CC[C@@H](c4ccc(C(F)(F)F)cc4)C3)C2)C1 [Compound 1B, 6-((1R,3R)-3-(4-(trifluoromethyl)phenyl)cyclopentyl)-2-thia-6-azaspiro[3.4]octane 2,2-dioxide] |
| 44.5 | 20 | Cn1nc(C(F)(F)F)cc1[C@H]1CC[C@@H](N2CCC3(C2)CS(=O)(=O)C3)CC1 [Compound 2A, 6-((1s,4s)-4-(1-methyl-3-(trifluoromethyl)-1H-pyrazol-5-yl)cyclohexyl)-2-thia-6-azaspiro[3.4]octane 2,2-dioxide] |
| 69.3 | 20 | Cn1nc(C(F)(F)F)cc1[C@H]1CC[C@H](N2CCC3(C2)CS(=O)(=O)C3)CC1 [Compound 2B, 6-((1r,4r)-4-(1-methyl-3-(trifluoromethyl)-1H-pyrazol-5-yl)cyclohexyl)-2-thia-6-azaspiro[3.4]octane 2,2-dioxide] |
| 15.8 | 20 | O=S1(=O)CC2(CCN([C@H]3CC[C@H](c4ccc(C(F)(F)F)cc4)CC3)C2)C1 [Compound 3A, 6-((1r,4r)-4-(4-(trifluoromethyl)phenyl)cyclohexyl)-2-thia-6-azaspiro[3.4]octane 2,2-dioxide] |
| 27.5 | 62 | O=S1(=O)CC2(CCN([C@H]3CC[C@@H](c4ccc(C(F)(F)F)cc4)CC3)C2)C1 [Compound 3B, 6-((1s,4s)-4-(4-(trifluoromethyl)phenyl)cyclohexyl)-2-thia-6-azaspiro[3.4]octane 2,2-dioxide] |
| 34 | 16 | CC(C)n1nc(C(F)(F)F)cc1[C@H]1CC[C@H](N2CCC3(C2)CS(=O)(=O)C3)CC1 [Compound 8A, 6-((1r,4r)-4-(1-isopropyl-3-(trifluoromethyl)-1H-pyrazol-5-yl)cyclohexyl)-2-thia-6-azaspiro[3.4]octane 2,2-dioxide] |
| 32.9 | 21 | CC(C)n1nc(C(F)(F)F)cc1[C@H]1CC[C@@H](N2CCC3(C2)CS(=O)(=O)C3)CC1 [Compound 8B, 6-((1s,4s)-4-(1-isopropyl-3-(trifluoromethyl)-1H-pyrazol-5-yl)cyclohexyl)-2-thia-6-azaspiro[3.4]octane 2,2-dioxide] |
| 34 | 28 | O=S1(=O)CC2(CCN([C@H]3CC[C@H](c4cc(C(F)(F)F)nn4C4CC4)CC3)C2)C1 [Compound 12A, 6-((1r,4r)-4-(1-Cyclopropyl-3-(trifluoromethyl)-1H-pyrazol-5-yl)cyclohexyl)-2-thia-6-azaspiro[3.4]octane 2,2-dioxide] |
| 32 | 29 | O=S1(=O)CC2(CCN([C@H]3CC[C@@H](c4cc(C(F)(F)F)nn4C4CC4)CC3)C2)C1 [Compound 12B, 6-((1s,4s)-4-(1-Cyclopropyl-3-(trifluoromethyl)-1H-pyrazol-5-yl)cyclohexyl)-2-thia-6-azaspiro[3.4]octane 2,2-dioxide] |
| 59 | 35 | O=S1(=O)CC2(CCN([C@H]3CC[C@H](c4ccc(C(F)(F)F)nc4)CC3)C2)C1 [Compound 14A, 6-((1r,4r)-4-(6-(Trifluoromethyl)pyridin-3-yl)cyclohexyl)-2-thia-6-azaspiro[3.4]octane 2,2-dioxide] |
| 28 | 30 | O=S1(=O)CC2(CCN([C@H]3CC[C@@H](c4ccc(C(F)(F)F)nc4)CC3)C2)C1 [Compound 14B, 6-((1s,4s)-4-(6-(Trifluoromethyl)pyridin-3-yl)cyclohexyl)-2-thia-6-azaspiro[3.4]octane 2,2-dioxide] |
| 32 | 23 | Cc1cc(C(F)(F)F)ncc1[C@H]1CC[C@@H](N2CCC3(C2)CS(=O)(=O)C3)CC1 [Compound 21A, 6-((1s,4s)-4-(4-Methyl-6-(trifluoromethyl)pyridin-3-yl)cyclohexyl)-2-thia-6-azaspiro[3.4]octane 2,2-dioxide] |
| 46 | 48 | Cc1cc(C(F)(F)F)ncc1[C@H]1CC[C@H](N2CCC3(C2)CS(=O)(=O)C3)CC1 [Compound 21B, 6-((1r,4r)-4-(4-Methyl-6-(trifluoromethyl)pyridin-3-yl)cyclohexyl)-2-thia-6-azaspiro[3.4]octane 2,2-dioxide] |
| 21 | 26 | O=S1(=O)CC2(CCN([C@H]3CC[C@@H](c4cc(C(F)(F)F)nn4C4CCC4)CC3)C2)C1 [Compound 23A, 6-((1s,4s)-4-(1-Cyclobutyl-3-(trifluoromethyl)-1H-pyrazol-5-yl)cyclohexyl)-2-thia-6-azaspiro[3.4]octane 2,2-dioxide] |

The remaining lines, values behind:

| SMILES | Ki [1] [nM] | Ki (human EBP) [nM] |
| --- | --- | --- |
| O=S1(=O)CC2(CCN([C@H]3CO[C@H](c4ccc(C(F)(F)F)cc4)C3)C2)C1 (stereo in doubt) [19D*, 6-((3R,5S)-5-(4-(trifluoromethyl)phenyl)tetrahydrofuran-3-yl)-2-thia-6-azaspiro[3.4]octane 2,2-dioxide] | 33 | 32 |
| CCn1nc(-c2ccc(C(F)(F)F)nc2)nc1[C@H]1CC[C@H](N2CCC3(C2)CS(=O)(=O)C3)CC1 [36A*, 6-((1r,4r)-4-(1-Ethyl-3-(6-(trifluoromethyl)pyridin-3-yl)-1H-1,2,4-triazol-5-yl)cyclohexyl)-2-thia-6-azaspiro[3.4]octane 2,2-dioxide] | 61 | 40 |
| CCn1nc(-c2ccc(C(F)(F)F)nc2)nc1[C@H]1CC[C@@H](N2CCC3(C2)CS(=O)(=O)C3)CC1 [36B*, 6-((1s,4s)-4-(1-ethyl-3-(6-(trifluoromethyl)pyridin-3-yl)-1H-1,2,4-triazol-5-yl)cyclohexyl)-2-thia-6-azaspiro[3.4]octane 2,2-dioxide] | 260 | 57 |
| O=S1(=O)CC2(CCN(C3CCN(c4ccc(C(F)(F)F)cc4)CC3)C2)C1 [Compound 4, 6-(1-(4-(trifluoromethyl)phenyl)piperidin-4-yl)-2-thia-6-azaspiro[3.4]octane 2,2-dioxide] | 51.8 | 26 |
| O=S1(=O)CC2(CCN(C3CCN(c4ccc(C(F)(F)F)nc4)CC3)C2)C1 [Compound 5, 6-(1-(6-(trifluoromethyl)pyridin-3-yl)piperidin-4-yl)-2-thia-6-azaspiro[3.4]octane 2,2-dioxide] | 148 | 67 |
| O=S1(=O)CC2(CCN(C3CCN(c4ccc(C(F)(F)F)cn4)CC3)C2)C1 [Compound 6, 6-(1-(5-(trifluoromethyl)pyridin-2-yl)piperidin-4-yl)-2-thia-6-azaspiro[3.4]octane 2,2-dioxide] | 23 | 37 |
| Cc1cc(C(F)(F)F)cnc1N1CCC(N2CCC3(C2)CS(=O)(=O)C3)CC1 [Compound 7, 6-(1-(3-methyl-5-(trifluoromethyl)pyridin-2-yl)piperidin-4-yl)-2-thia-6-azaspiro[3.4]octane 2,2-dioxide] | 17.5 | 10 |
| CCn1nc(C(F)(F)F)cc1[C@H]1CC[C@H](N2CCC3(C2)CS(=O)(=O)C3)CC1 [Compound 15, 6-((1r,4r)-4-(1-Ethyl-3-(trifluoromethyl)-1H-pyrazol-5-yl)cyclohexyl)-2-thia-6-azaspiro[3.4]octane 2,2-dioxide] | 56 | 25 |
| CCn1nc([C@H]2CC[C@H](N3CCC4(C3)CS(=O)(=O)C4)CC2)cc1C(F)(F)F [Compound 16, 6-((1r,4r)-4-(1-Ethyl-5-(trifluoromethyl)-1H-pyrazol-3-yl)cyclohexyl)-2-thia-6-azaspiro[3.4]octane 2,2-dioxide] | 52 | 36 |
